Source: BindingDB's records for doi:10.1021/cc050016r (Uppsala University, 2005)
Where “and” joins values, the source holds several entries; their conditions need not be identical. Equal values may be shown once.

biological target: HIV-1 protease (Human immunodeficiency virus, UniProt Q9YQ34); assay: Fluorometric Assay
Text: Fluorometric assay using HIV-1 protease.

Sequence of HIV-1 protease (Q9YQ34 whole entry): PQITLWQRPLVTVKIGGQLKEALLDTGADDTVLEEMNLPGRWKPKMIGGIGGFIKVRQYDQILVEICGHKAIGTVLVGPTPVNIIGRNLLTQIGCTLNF

Compound | Ki
CNC(=O)c1ccccc1CO[C@@H](C(=O)N[C@H](C(=O)NC)C(C)C)[C@H](O)[C@@H](O)[C@@H](OCc1ccccc1C(=O)NC)C(=O)N[C@H](C(=O)NC)C(C)C [HIV-1 Protease Inhibitor, 6a] | > 5000 nM
CNC(=O)[C@@H](NC(=O)[C@H](OCc1ccccc1C(=O)NC(C)(C)C)[C@H](O)[C@@H](O)[C@@H](OCc1ccccc1C(=O)NC(C)(C)C)C(=O)N[C@H](C(=O)NC)C(C)C)C(C)C [HIV-1 Protease Inhibitor, 6b] | 700 nM
CCCCNC(=O)c1ccccc1CO[C@@H](C(=O)N[C@H](C(=O)NC)C(C)C)[C@H](O)[C@@H](O)[C@@H](OCc1ccccc1C(=O)NCCCC)C(=O)N[C@H](C(=O)NC)C(C)C [HIV-1 Protease Inhibitor, 6c] | 600 nM
CNC(=O)[C@@H](NC(=O)[C@H](OCc1ccccc1C(=O)N1CCCC1)[C@H](O)[C@@H](O)[C@@H](OCc1ccccc1C(=O)N1CCCC1)C(=O)N[C@H](C(=O)NC)C(C)C)C(C)C [HIV-1 Protease Inhibitor, 6d] | 400 nM
CNC(=O)[C@@H](NC(=O)[C@H](OCc1ccccc1C(=O)N1CCOCC1)[C@H](O)[C@@H](O)[C@@H](OCc1ccccc1C(=O)N1CCOCC1)C(=O)N[C@H](C(=O)NC)C(C)C)C(C)C [HIV-1 Protease Inhibitor, 6e] | > 5000 nM
CNC(=O)[C@@H](NC(=O)[C@H](OCc1ccccc1C(=O)NC1CCCCC1)[C@H](O)[C@@H](O)[C@@H](OCc1ccccc1C(=O)NC1CCCCC1)C(=O)N[C@H](C(=O)NC)C(C)C)C(C)C [HIV-1 Protease Inhibitor, 6f] | 200 nM and 196 nM
CNC(=O)[C@@H](NC(=O)[C@H](OCc1ccccc1C(=O)Nc1nccs1)[C@H](O)[C@@H](O)[C@@H](OCc1ccccc1C(=O)Nc1nccs1)C(=O)N[C@H](C(=O)NC)C(C)C)C(C)C [HIV-1 Protease Inhibitor, 6g] | 700 nM
CNC(=O)[C@@H](NC(=O)[C@H](OCc1ccccc1C(=O)N1CCc2ccccc21)[C@H](O)[C@@H](O)[C@@H](OCc1ccccc1C(=O)N1CCc2ccccc21)C(=O)N[C@H](C(=O)NC)C(C)C)C(C)C [HIV-1 Protease Inhibitor, 6j] | 800 nM
CCOC(=O)c1ccc(NC(=O)c2ccccc2CO[C@@H](C(=O)N[C@H](C(=O)NC)C(C)C)[C@H](O)[C@@H](O)[C@@H](OCc2ccccc2C(=O)Nc2ccc(C(=O)OCC)cc2)C(=O)N[C@H](C(=O)NC)C(C)C)cc1 [HIV-1 Protease Inhibitor, 6k] | 200 nM
CNC(=O)[C@@H](NC(=O)[C@H](OCc1ccccc1C(=O)Nc1cccc2cnccc12)[C@H](O)[C@@H](O)[C@@H](OCc1ccccc1C(=O)Nc1cccc2cnccc12)C(=O)N[C@H](C(=O)NC)C(C)C)C(C)C [HIV-1 Protease Inhibitor, 6n] | 800 nM
CNC(=O)[C@@H](NC(=O)[C@H](OCc1cccc(C(=O)N2CCCC2)c1)[C@H](O)[C@@H](O)[C@@H](OCc1cccc(C(=O)N2CCCC2)c1)C(=O)N[C@H](C(=O)NC)C(C)C)C(C)C [HIV-1 Protease Inhibitor, 7c] | 200 nM
CNC(=O)[C@@H](NC(=O)[C@H](OCc1cccc(C(=O)N2CCOCC2)c1)[C@H](O)[C@@H](O)[C@@H](OCc1cccc(C(=O)N2CCOCC2)c1)C(=O)N[C@H](C(=O)NC)C(C)C)C(C)C [HIV-1 Protease Inhibitor, 7d] | 300 nM

Other lines, results leading:

Ki | Compound
7 nM and 20 nM | CNC(=O)[C@@H](NC(=O)[C@H](OCc1ccccc1C(=O)Nc1ccccc1)[C@H](O)[C@@H](O)[C@@H](OCc1ccccc1C(=O)Nc1ccccc1)C(=O)N[C@H](C(=O)NC)C(C)C)C(C)C [HIV-1 Protease Inhibitor, 6h]
70 nM and 118 nM | CNC(=O)[C@@H](NC(=O)[C@H](OCc1ccccc1C(=O)Nc1cccnc1)[C@H](O)[C@@H](O)[C@@H](OCc1ccccc1C(=O)Nc1cccnc1)C(=O)N[C@H](C(=O)NC)C(C)C)C(C)C [HIV-1 Protease Inhibitor, 6i]
6 nM and 8.5 nM | CNC(=O)[C@@H](NC(=O)[C@H](OCc1ccccc1C(=O)Nc1cccc(Cl)c1)[C@H](O)[C@@H](O)[C@@H](OCc1ccccc1C(=O)Nc1cccc(Cl)c1)C(=O)N[C@H](C(=O)NC)C(C)C)C(C)C [HIV-1 Protease Inhibitor, 6l]
2000 nM and 1330 nM | CNC(=O)[C@@H](NC(=O)[C@H](OCc1ccccc1C(=O)NCc1ccccc1)[C@H](O)[C@@H](O)[C@@H](OCc1ccccc1C(=O)NCc1ccccc1)C(=O)N[C@H](C(=O)NC)C(C)C)C(C)C [HIV-1 Protease Inhibitor, 6m]
20 nM | CNC(=O)c1cccc(CO[C@@H](C(=O)N[C@H](C(=O)NC)C(C)C)[C@H](O)[C@@H](O)[C@@H](OCc2cccc(C(=O)NC)c2)C(=O)N[C@H](C(=O)NC)C(C)C)c1 [HIV-1 Protease Inhibitor, 7a]
3 nM and 6.5 nM | CCCCNC(=O)c1cccc(CO[C@@H](C(=O)N[C@H](C(=O)NC)C(C)C)[C@H](O)[C@@H](O)[C@@H](OCc2cccc(C(=O)NCCCC)c2)C(=O)N[C@H](C(=O)NC)C(C)C)c1 [HIV-1 Protease Inhibitor, 7b]
20 nM | CNC(=O)[C@@H](NC(=O)[C@H](OCc1cccc(C(=O)NC2CCCCC2)c1)[C@H](O)[C@@H](O)[C@@H](OCc1cccc(C(=O)NC2CCCCC2)c1)C(=O)N[C@H](C(=O)NC)C(C)C)C(C)C [HIV-1 Protease Inhibitor, 7e]
7 nM | CNC(=O)[C@@H](NC(=O)[C@H](OCc1cccc(C(=O)Nc2ccccc2)c1)[C@H](O)[C@@H](O)[C@@H](OCc1cccc(C(=O)Nc2ccccc2)c1)C(=O)N[C@H](C(=O)NC)C(C)C)C(C)C [HIV-1 Protease Inhibitor, 7f]
2 nM and 2.9 nM | CNC(=O)[C@@H](NC(=O)[C@H](OCc1cccc(C(=O)NCc2ccccc2)c1)[C@H](O)[C@@H](O)[C@@H](OCc1cccc(C(=O)NCc2ccccc2)c1)C(=O)N[C@H](C(=O)NC)C(C)C)C(C)C [HIV-1 Protease Inhibitor, 7g]
